Data set [1] is described as follows: Pharmacokinetics in KPF/FC mice (tumor and blood). The format is in vivo, mouse. As to the method:
(§1) Tumor formation in KPF/FC (KrasLSL.G12D/+; p53flox/flox; Pdx1-Cre) mice was monitored by bi-weekly palpations until the detection of a mass, which was then confirmed by ultrasound. Tumor-bearing mice were randomized and assigned into groups (n=3/dose/timepoint). Single dose of RMC-7977 was administered orally at 10 mg/kg, 25 mg/kg and 50 mg/kg. The same vehicle formulation was used for the control group. Whole blood and tissue (tumors and colons) were harvested at indicated time points preserved as previously described (See Xenograft studies section).
Whole blood, tumor, colon and skin tissue concentrations of RMC-7977 were determined using liquid chromatography-tandem mass spectrometry (LC-MS/MS) methods. Tissue samples were homogenized with a 5× or 10× volume of homogenization buffer (methanol/15 mM PBS (1:2; v:v) or 15 mM PBS with 10% methanol). […] After thorough mixing and centrifugation, the supernatant was directly analyzed on a Sciex 6500+ triple quadrupole mass spectrometer equipped with an ACQUITY or Shimadzu UPLC system. […] RMC-7977 and IS (verapamil or terfenadine) were detected by positive electrospray ionization using multiple reaction monitoring (RMC-7977: m/z 865.4/706.4 or m/z 865.3/833.5; verapamil: m/z 455.2/164.9; terfenadine: m/z 472.3/436.4). The lower limit of quantification was 0.5 ng/mL or 2.0 ng/mL for blood, tumor, and other tissue. […]

The test system of another data set is murine PDAC cell lines. Nature of the data set: Murine cell viability assay. The class given is cell-based. Particulars: most murine PDAC cell lines; 72 hours. As to the method: PDAC murine cell lines harboring KrasG12D or KrasG12C mutations were seeded at 2×10^3 in a 96-well plate. Cells were treated 24 hours later with DMSO or serial dilutions of RMC-7977. Cell viability was evaluated 72 hours later by measuring adenosine triphosphate (ATP) levels using the CellTiter-Glo® Luminescent Cell Viability Assay (Promega, G7572) according to the manufacturer's instructions. For experiments comparing naive and resistant cell lines, live cells were fluorescently labelled using Calcein AM (20-minute incubation at 500 nM, Thermo Fisher) and counted using the SpectraMax i3X multimode detection platform (Molecular Devices). Technical triplicates were run for each biological replicate and a total of 3-4 biological replicates was done for each cell line. Growth percentage was calculated by normalizing drug-treated values to DMSO control, which was set to 100%. Four-parameter drug response curves were generated from 3+ biological replicates in GraphPad Prism. Mean±s.d. was plotted for each tested dilution.

The subject of a further data set is Myc protein levels. Nature of the data set: Western blot of Myc in resistant and naive KPC cell lines. The class given is cell-based, murine. Particulars: 100 nM, 24 hours. On the procedure: Cells were seeded at 7.5×10^5-4×10^6 cells per well in 6-well plates or 100 mm dishes in growth medium. After overnight incubation, indicated compound (RMC-7977, IAG933 or DMSO (0.1% v/v)) were added and incubated for the indicated time points. Cells were washed twice with ice-cold PBS and lysed with NP-40 lysis buffer (Thermo Fisher Scientific, J60766), MSD Tris Lysis Buffer (MSD, R60TX-2), RIPA buffer (50 mM TRIS-HCl, pH 7.5, 150 mM NaCl, 1% NP-40, 0.5% sodium deoxycholate, 0.1% SDS) or a lysis buffer containing 1% Triton X-100, 20 mM Tris-HCl, 150 mM NaCl, and 1 mM EDTA. All lysis buffers were supplemented with protease and phosphatase inhibitors. Lysates were scraped and collected before centrifugation at 21,000×g for 10 minutes at 4° C. The protein-containing supernatants were quantified by BCA assay (Pierce, 23225) and equal quantities of protein were denatured with LDS and reducing agent at 95° C. Samples were resolved on 12% or 4-12% Bis-Tris polyacrylamide gels, then transferred to a nitrocellulose or PVDF membrane using the iBlot 2.0 system or wet transfer. Membranes were blocked in Intercept TBS buffer (LiCor, 927-60001) or 3-5% milk before probing with primary antibodies overnight at 4° C. Secondary antibodies were added as appropriate, and the membranes were imaged on a LiCor Odyssey imager. […]

The test system of another data set is pERK in colon. Nature of the data set: pERK IHC in colon tissues of KPF/FC mice. The format is in vivo, mouse. Particulars: KPF/FC cohort; 10 and 25 mg/kg dose levels. On the procedure: as §1
All tissues were fixed for up to 24 hours using 10% neutral buffered formalin and then moved to 70% ethanol for long term storage. All stainings were performed on 4-μm tissue sections. Sections were deparaffinized using a Leica XL ST5010 autostainer, after which slides were subjected to heat-activated epitope retrieval. To block endogenous peroxidases, 20 min incubation in 3% H2O2 (Fisher Scientific) was performed. Slides were further blocked in serum for 1 hour, and primary antibodies were added for overnight incubation at 4° C. The next day, slides were washed and incubated with ImmPRESS HRP Horse Anti-Rabbit IgG Polymer Detection Kit (Vector Laboratories, MP-7401) for 30 min. […] Quantitative analyses of IHC images were performed using ImageJ.

Data on one compound can be found in US12662707B2, “MYC amplification drives resistance to pan-RAS inhibitors in pancreatic cancer” (The Trustees of Columbia University in the City of New York, priority 2024, dated 2026).

Turning to `CCn1c(-c2cc(N3CCN(C4CC4)CC3)cnc2[C@H](C)OC)c2c3cc(ccc31)-c1csc(n1)C[C@H](NC(=O)[C@H]1[C@@H]3COC[C@@H]31)C(=O)N1CCC[C@H](N1)C(=O)OCC(C)(C)C2` [RMC-7977], the “exposure in blood and PDAC tumors compared with CDX tumor-bearing BALB/c mice” value in data set [1] (KPF/FC mice) is listed as “lower”. Further, in data set [1] (KPF/FC tumors), the “half-life (t1/2) in KPF/FC tumors compared to CDX tumors” value was “shorter half-life”. For the same compound, the “potency in concentration-response cell viability assays” value with murine PDAC cell lines is on record as “low nanomolar potency”. The Myc protein levels result is “fully inhibited” in the data set on Myc protein levels (two RMC-7977 Naive lines) and “incompletely reduced” with Myc protein levels (two Resistant lines). In addition, the “RAS/MAPK activity (pERK) in colon tissues” value in the data set on pERK in colon is on record as “rapidly restored to baseline”.
